In publication PMC8000724, “Trans-Epithelial Transport, Metabolism, and Biological Activity Assessment of the Multi-Target Lupin Peptide [sequence] (P5) and Its Metabolite [sequence] (P5-Met)” (Nutrients, 2021):

Legend:
[1] = test system: differentiated Caco-2 cells (AP membrane peptidases); experiment: Metabolites of P5 produced by Caco-2 cell peptidases, MS analysis of AP solutions; format: in vitro ADME, human; set-up: key to Metabolite of P5 identified in the AP compartment: Mixture / Metabolite of P5 identified in the AP compartment: Alone: x, detected; n.d., not detected
Procedure: Prior to experiments, the cell monolayer integrity and differentiation were checked by TEER measurement as described in detail above. Peptide trans-epithelial passage was assayed in differentiated Caco-2 cells in transport buffer solution (137 mM NaCl, 5.36 mM KCl, 1.26 mM CaCl2, and 1.1 mM MgCl2, 5.5 mM glucose) according to previously described conditions. In order to reproduce the pH conditions existing in vivo in the small intestinal mucosa, the apical (AP) solutions were maintained at pH 6.0 (buffered with 10 mM morpholinoethane sulfonic acid), and the basolateral (BL)solutions were maintained at pH 7.4 (buffered with 10 mM […]). Prior to transport experiments, cells were washed twice with 500 µL PBS containing Ca^++ and Mg^++. Peptide transportation by mature Caco-2 cells was assayed by loading the AP compartment with P5 alone, in mixture with […] (P3) and […] (P7), and/or P5-met (500 μM) in the AP transport solution (500 µL) and the BL compartment with the BL transport solution (700 µL). The plates were incubated at 37 °C and the BL solutions were collected at different time points (i.e., 15, 30, 60, 90, and 120 min) and replaced with fresh solutions pre-warmed at 37 °C. All BL and AP solutions collected at the end of the transport experiment were stored at −80 °C prior to analysis. Three independent transport experiments were performed, each in duplicate. In order to assess the involvement of transcytotic process in peptides passage, parallel transport experiments were performed in the presence of 500 nM wortmannin in both the AP and BL compartment, over 60 min incubation time.
The medium collected at the end of transport experiments from AP and BL chambers (500 µL and 700 µL, respectively) were freeze-dried and residues were solubilized in HPLC water (100 µL). Samples were desalted with C18 resin ZipTip by using 80% ACN, 0.1% FA as eluent (Millipore Corporation, Bedford, MA, USA). Each sample was lyophilized under speed-vacuum for 5 h at 30°C and re-dissolved in 50 μL (0.1% formic acid), before MS analysis. Purified BL samples were analyzed on a SL IT mass spectrometer interfaced with a HPLC- Chip Cube source (Agilent Technologies, Palo Alto, CA, USA). Data were processed with MSD Trap control 4.2, and Data analysis 4.2 version (Agilent Technologies, Palo Alto, CA, USA). The chromatographic separation was performed using a 1200 HPLC system equipped with a binary pump. […] Specifically, The monitored MRM transitions of P5-met were from the mono-charged precursor ion [M^+H]^+ (m/z 882.43) to product-ions m/z 678.3 and 407.1, respectively. […]

secreted mature PCSK9 = experiment: Quantification of PCSK9 secreted by HepG2 cells through ELISA; format: cell-based, human; conditions: HepG2 supernatants, 50 µM, mean ± SD
Procedure: The supernatants collected from treated HepG2 cells (50.0 μM of P5 and/or P5-met) were centrifuged at 600 × g for 10 min at 4 °C and ELISA assay performed using protocol already optimized. They were recovered and diluted to the ratio 1:10 with DMEM in a new ice-cold tube. PCSK9 was quantified by ELISA (R&D System, Minneapolis, MN, USA). Briefly, the experiments were carried out at 37 °C, following the manufacturer’s instructions. Before starting the assay, human PCSK9 standard curve (20.0, 10.0, 5.0, 2.5, 1.25, and 0.625 ng/mL) was prepared by serial dilutions from a 40 ng/mL stock. 100 µL of the Assay Diluent RD1-9 (provided into the kit) were placed in each well, before adding the standards and the samples (50 µL) and incubating the ELISA plate for 2 h at RT. Subsequently, wells were washed 4 times with the wash buffer, and 200 µL of human PCSK9-conjugate (HRP-labelled anti-PCSK9) was added to each well for 2 h at RT. Following aspiration, wells was washed 4 times with the kit wash buffer. After the last wash, 200 µL of substrate solution were added to the wells and allowed to incubate for 30 min at RT. The reaction was stopped with 50 µL of the stop solution (2 M sulfuric acid) and the absorbance at 450 nm was measured using Synergy H1 microplate (Winooski, VT, USA).

Spectral Intensity of the metabolite in the AP compartment ([1]; Caco-2, AP compartment, end of incubation 120 min, used as measure of metabolite abundance): 1.21 × 10^7 | Metabolite of P5 identified in the AP compartment: Alone ([1]; P5 incubated alone (500 μM), Caco-2, end of incubation 120 min): x | Metabolite of P5 identified in the AP compartment: Mixture ([1]; P5 incubated in mixture with P3 and P7 (500 μM each), Caco-2, end of incubation 120 min): x
Substance: H-LPKHSDAD-OH [Peptide P5-met]
Decrease of the secretion of mature PCSK9 (secreted mature PCSK9): 22.2 ± 4.9%
